Source: PMC8951032, “Study of Biological Activities and ADMET-Related Properties of Novel Chlorinated N-arylcinnamamides” (International Journal of Molecular Sciences, 2022)
≈ marks a conversion by molar mass, not a printed value. Like-named read-outs stand apart in the source and are kept apart here.

How the values were obtained:
[1] = Lipophilicity determination by RP-HPLC (log k, log D); type: physicochemical; details: for log k: MeOH 72%/H2O 28%; for log D6.5: MeOH 72%/acetate buffered saline pH 6.5; for log D7.4: MeOH 72%/acetate buffered saline pH 7.4
In short: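 Isocratic RP-HPLC on C18 column, 40 °C, 1.0 mL/min, UV 210 nm, dead time from KI. log k from MeOH/water 72:28; log D at pH 7.4 and 6.5 from MeOH/acetate buffered saline 72:28. k and D = (tR − tD)/tD; triplicate runs.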

[2] = test system: methicillin-resistant S. aureus (MRSA) 63718; experiment: In vitro antistaphylococcal activity, microtitration broth MIC; type: cell-based; details: Staphylococcus aureus
[3] = test system: methicillin-resistant S. aureus SA 630; experiment: as above; type: cell-based; details: Staphylococcus aureus
[4] = test system: methicillin-resistant S. aureus SA 3202; experiment: as above; type: cell-based; details: Staphylococcus aureus
[5] = test system: Enterococcus faecalis ATCC 29212; experiment: In vitro antienterococcal activity, microtitration broth MIC; type: cell-based
[6] = test system: vancomycin-resistant E. faecalis (VRE) 342B; experiment: as above; type: cell-based, Enterococcus faecalis; details: 24 h
[7] = test system: vancomycin-resistant E. faecalis (VRE) 368; experiment: as above; type: cell-based, Enterococcus faecalis
[8] = test system: vancomycin-resistant E. faecalis (VRE) 725B; experiment: as above; type: cell-based, Enterococcus faecalis; details: 24 h
[9] = test system: Mycobacterium smegmatis ATCC 700084; experiment: In vitro antimycobacterial activity, broth dilution MIC; type: cell-based; details: Mycolicibacterium smegmatis
[10] = test system: Mycobacterium marinum CAMP 5644; experiment: as above; type: cell-based; details: CAMP5644, 504 h
[11] = test system: human monocytic leukemia cell line THP-1; experiment: In vitro cell viability, CCK-8; type: cell-based; details: for IC50: Homo sapiens, THP-1
Protocol: (§1) The effect of the compounds on viability of eukaryotic cells was evaluated on human leukemia cell line THP-1, human synovial cell line SW982, and isolated primary porcine monocytes-delivered macrophages (MDM). The general cytotoxic effect was studied on THP-1 cells in the serum-free medium (only THP-1 as the only cells used in this study are able to survive in serum-free medium). Most of the compounds had no cytotoxic effect on THP-1 cells. […] This could be caused by the direct interaction of such compounds with serum proteins or by the effect of mitogens, cytokines, and hormones present in the serum. Obviously, the full medium is closer to physiological conditions in living organisms, so it can be assumed that these compounds could be non-toxic there.
(§2) Human monocytic leukemia cell line THP-1 and human synovial cell line SW982 were purchased from the European Collection of Cell Cultures (ECACC, Salisbury, UK) and were used for determination of the influence of test compounds on cell viability, as described previously. These cell lines represent typical suspension and adherent cells, respectively. They were cultivated with test substances in the presence or absence of fetal bovine serum (FBS) in the cultivation medium, and the relative cell viability (the ratio between cells treated with compounds and cells treated only with DMSO) was determined by CCK-8 kit (Sigma) after 24 h.

[12] = test system: human synovial cell line SW982; experiment: In vitro cell viability, CCK-8; type: cell-based; details: 10% fetal bovine serum
Protocol: as §1, §2

[13] = test system: S. aureus, MRSA, E. faecalis, VRE, M. smegmatis, M. marinum; experiment: In vitro antimicrobial screening, all tested strains; type: cell-based; details: antibacterial/antimycobacterial screening
[14] = 24 h, MRSA 63718, read-out: log(1/MIC [M]) MRSA1 (converted)
[15] = MRSA 63718, 24 h, read-out: MIC MRSA1
[16] = 24 h, MRSA SA 630, read-out: log(1/MIC [M]) MRSA2 (converted)
[17] = MRSA SA 630, 24 h, read-out: MIC MRSA2
[18] = 24 h, MRSA SA 3202, read-out: log(1/MIC [M]) MRSA3 (converted)
[19] = MRSA SA 3202, 24 h, read-out: MIC MRSA3
[20] = ATCC29212, 24 h, E. faecalis reference strain, read-out: log(1/MIC [M]) EF (converted)
[21] = ATCC29212, E. faecalis reference strain, 24 h, read-out: MIC EF
[22] = read-out: log(1/MIC [M]) VRE1 (converted)
[23] = 24 h, VRE 368, read-out: log(1/MIC [M]) VRE2 (converted)
[24] = VRE 368, 24 h, read-out: MIC VRE2
[25] = read-out: log(1/MIC [M]) VRE3 (converted)
[26] = ATCC700084, 72 h, M. smegmatis ATCC 700084, three days, read-out: MIC MS
[27] = ATCC700084, M. smegmatis ATCC 700084, read-out: log(1/MIC [M]) MS (converted)
[28] = M. marinum CAMP 5644, 21 days, read-out: MIC MM
[29] = M. marinum CAMP 5644, read-out: log(1/MIC [M]) MM (converted)
[30] = 10% fetal bovine serum, 24 h, read-out: IC50 THP-1 10% FSB
[31] = 10% fetal bovine serum, read-out: log(1/IC50 [M]) THP-1 10% FSB (converted)
[32] = serum-free medium, 24 h, read-out: IC50 THP-1 SFM
[33] = serum-free medium, read-out: log(1/IC50 [M]) THP-1 SFM (converted)
[34] = 24 h, read-out: IC50 SW982 10% FSB
[35] = read-out: log(1/IC50 [M]) SW982 10% FSB (converted)

| log k [1] | log D6.5 [1] | log D7.4 [1] | MIC [2, 14] [M] | MIC [2, 15] [M] | MIC [3, 16] [M] | MIC [3, 17] [M] | MIC [4, 18] [M] | MIC [4, 19] [M] | MIC [5, 20] [M] | MIC [5, 21] [M] | MIC ([6]; read-out: MIC VRE1) [M] | MIC [6, 22] [M] | MIC [7, 23] [M] | MIC [7, 24] [M] | MIC ([8]; read-out: MIC VRE3) [M] | MIC [8, 25] [M] | MIC [9, 26] [M] | MIC [9, 27] [M] | MIC [10, 28] [M] | SMILES | other results |
| --- | --- | --- | --- | --- | --- | --- | --- | --- | --- | --- | --- | --- | --- | --- | --- | --- | --- | --- | --- | --- | --- |
| 1.0364 | 1.0370 | 0.9945 | 3.72e-07 (≈ 0.134 µg/mL) | 3.71e-07 (≈ 0.134 µg/mL) | 3.72e-07 (≈ 0.134 µg/mL) | 3.71e-07 (≈ 0.134 µg/mL) | 6.92e-07 (≈ 0.249 µg/mL) | 6.94e-07 (≈ 0.25 µg/mL) | 1.12e-05 (≈ 4.04 µg/mL) | 1.11e-05 (≈ 4 µg/mL) | 1.11e-05 (≈ 4 µg/mL) | 1.12e-05 (≈ 4.04 µg/mL) | 1.12e-05 (≈ 4.04 µg/mL) | 1.11e-05 (≈ 4 µg/mL) | 1.11e-05 (≈ 4 µg/mL) | 1.12e-05 (≈ 4.04 µg/mL) | 2.78e-06 (≈ 1 µg/mL) | 2.75e-06 (≈ 0.992 µg/mL) | 2.78e-06 (≈ 1 µg/mL) | O=C(/C=C/c1ccc(Cl)c(Cl)c1)Nc1ccc(C(F)(F)F)cc1 [2j, (2E)-3-(3,4-Dichlorophenyl)-N-[4-(trifluoromethyl)phenyl]prop-2-enamide] | MIC [10, 29]: 2.75e-06 M (≈ 0.992 µg/mL); IC50 [11, 30]: > 1e-05 M; IC50 [11, 31]: > 1e-05 M; IC50 [11, 32]: 9e-07 ± 1e-06 M; IC50 [11, 33]: 8.91e-07 M; IC50 [12, 34]: > 1e-05 M; IC50 [12, 35]: > 1e-05 M; antimicrobial activity (in words) [13]: active |
| 1.0513 | 1.0544 | 1.0053 | 1.32e-06 (≈ 0.496 µg/mL) | 1.33e-06 (≈ 0.5 µg/mL) | 1.32e-06 (≈ 0.496 µg/mL) | 1.33e-06 (≈ 0.5 µg/mL) | 1.32e-06 (≈ 0.496 µg/mL) | 1.33e-06 (≈ 0.5 µg/mL) | 4.68e-06 (≈ 1.76 µg/mL) | 1.06e-05 (≈ 3.99 µg/mL) | 2.13e-05 (≈ 8.01 µg/mL) | 2.14e-05 (≈ 8.04 µg/mL) | 4.27e-05 (≈ 16 µg/mL) | 4.25e-05 (≈ 16 µg/mL) | 2.13e-05 (≈ 8.01 µg/mL) | 2.14e-05 (≈ 8.04 µg/mL) | 1.06e-05 (≈ 3.99 µg/mL) | 2.34e-06 (≈ 0.882 µg/mL) | 2.66e-06 (≈ 1 µg/mL) | O=C(/C=C/c1ccc(Cl)c(Cl)c1)Nc1ccc(OC(F)(F)F)cc1 [2k, (2E)-3-(3,4-Dichlorophenyl)-N-[4-(trifluoromethoxy)phenyl]prop-2-enamide] | MIC [10, 29]: 2.95e-07 M (≈ 0.111 µg/mL); reduction of cell viability, CCK-8 assay ([11]; 2k 1.0 µM, serum-free medium): 50%; IC50 [11, 30]: > 1e-05 M; IC50 [11, 31]: > 1e-05 M; IC50 [11, 32]: 1e-06 ± 1e-06 M; IC50 [11, 33]: 5.01e-07 M; IC50 [12, 34]: > 1e-05 M; IC50 [12, 35]: > 1e-05 M; antimicrobial activity (in words) [13]: active |
| 1.4731 | 1.4967 | 1.4717 | 1.35e-07 (≈ 0.0578 µg/mL) | 1.36e-07 (≈ 0.0582 µg/mL) | 1.35e-07 (≈ 0.0578 µg/mL) | 1.36e-07 (≈ 0.0582 µg/mL) | 2.95e-07 (≈ 0.126 µg/mL) | 2.92e-07 (≈ 0.125 µg/mL) | 1.07e-05 (≈ 4.59 µg/mL) | 4.67e-06 (≈ 2 µg/mL) | 9.34e-06 (≈ 4 µg/mL) | 9.33e-06 (≈ 4 µg/mL) | 1.86e-05 (≈ 7.97 µg/mL) | 1.87e-05 (≈ 8 µg/mL) | 4.67e-06 (≈ 2 µg/mL) | 4.68e-06 (≈ 2 µg/mL) | 2.34e-06 (≈ 1 µg/mL) | 1.07e-05 (≈ 4.59 µg/mL) | 2.92e-07 (≈ 0.125 µg/mL) | O=C(/C=C/c1ccc(Cl)c(Cl)c1)Nc1cc(C(F)(F)F)cc(C(F)(F)F)c1 [2q, (2E)-N-[3,5-bis(Trifluoromethyl)phenyl]-3-(3,4-dichlorophenyl)prop-2-enamide] | MIC [10, 29]: 2.63e-06 M (≈ 1.13 µg/mL); IC50 [11, 30]: > 1e-05 M; IC50 [11, 31]: > 1e-05 M; IC50 [11, 32]: 5e-07 ± 1e-06 M; IC50 [11, 33]: 1e-06 M; IC50 [12, 34]: > 1e-05 M; IC50 [12, 35]: > 1e-05 M; antimicrobial activity (in words) [13]: active |
